Experimental data from US9174977B2, “2-azabicyclo[4.1.0]heptane derivatives as orexin receptor antagonists for the treatment of certain disorders” (Rottapharm Biotech S.r.l., priority 2012, dated 2015).

Assays:
human OX2 receptors = molecular target: T1, human OX2 receptors (Homo sapiens, UniProt O43614); test: antagonistic activity against human OX2 receptor, calcium fluorimetry (Fluo-4NW) in transfected HEK-293 cells; type: cell-based; settings: HEK-293 cells transfected with human recombinant OX2, activated with orexin-B 10 nM; pKb = co-logarithm of apparent dissociation constant (modified Cheng Prusoff)
T1 construct: expressed in transfected cells; host or cells: HEK-293 cells
T1 sequence (O43614 1-444): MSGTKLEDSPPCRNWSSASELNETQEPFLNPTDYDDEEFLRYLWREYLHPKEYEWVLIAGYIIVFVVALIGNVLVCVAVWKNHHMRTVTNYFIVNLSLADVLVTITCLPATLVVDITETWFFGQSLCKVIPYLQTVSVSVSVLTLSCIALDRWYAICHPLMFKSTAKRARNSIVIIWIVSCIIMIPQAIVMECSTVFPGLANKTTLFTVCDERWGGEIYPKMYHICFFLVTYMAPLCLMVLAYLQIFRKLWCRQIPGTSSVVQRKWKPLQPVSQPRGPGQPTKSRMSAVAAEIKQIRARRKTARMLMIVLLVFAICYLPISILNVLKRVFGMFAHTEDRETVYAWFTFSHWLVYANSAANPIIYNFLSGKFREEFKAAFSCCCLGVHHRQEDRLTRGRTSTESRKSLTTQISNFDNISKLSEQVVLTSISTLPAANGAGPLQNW
Method: (§1) In a typical experiment, the antagonistic activity against human OX1 and OX2 receptors is determined by using CHO e HEK-293 cells transfected with human recombinant OX1 and OX2 receptors respectively, seeded at density of 2 and 3×10^4 cells/well respectively in a 96 fluorimetry well plate. Thus the plate was loaded with the calcium dye (Fluo-4NW/probenecid in HBSS, Hepes 20 mM, pH 7,4; Invitrogen) at 37° C. for 60 min. Afterward the temperature was equilibrated at 22° C. for 15 min and the [Ca2+]i measured directly on the plate by using a fluorescent plate reader (CellLux Perkin Elmer).
(§2) Invention compounds were dissolved in DMSO, diluted in HBSS (DMSO, 0.3% final) and added to the wells. After 5 min CHO cells were activated with orexin-A, 3 nM while HEK-293 cells were activated with orexin-B, 10 nM.
(§3) The compounds, dissolved in DMSO and diluted in the medium (DMSO, 0.3% final), have been analysed in the 1 nM-1 μM concentration range (every concentration in duplicate). The antagonistic activity has been expressed as pKb (co-logarithm of the apparent dissociation constant calculated by using the modified Cheng Prusoff equation).
(§4) The results are expressed as percent of control specific […] response ((measured specific response/control specific agonist response)×100) obtained in the presence of the test compounds.
(§5) The IC50 values (concentration causing a half-maximal inhibition of the control specific agonist response) were determinated by non-linear regression analysis of the concentration curves generated with mean replicate values using hill equation curve fitting. The IC50 values are obtained by the arithmetical mean of at least two experiments.

human OX1 receptors = molecular target: T2, human OX1 receptors (Homo sapiens, UniProt O43613); test: antagonistic activity against human OX1 receptor, calcium fluorimetry (Fluo-4NW) in transfected CHO cells; type: cell-based; settings: CHO cells transfected with human recombinant OX1, activated with orexin-A 3 nM; pKb = co-logarithm of apparent dissociation constant (modified Cheng Prusoff)
T2 construct: expressed in transfected cells; host or cells: CHO cells
T2 sequence (O43613 1-425): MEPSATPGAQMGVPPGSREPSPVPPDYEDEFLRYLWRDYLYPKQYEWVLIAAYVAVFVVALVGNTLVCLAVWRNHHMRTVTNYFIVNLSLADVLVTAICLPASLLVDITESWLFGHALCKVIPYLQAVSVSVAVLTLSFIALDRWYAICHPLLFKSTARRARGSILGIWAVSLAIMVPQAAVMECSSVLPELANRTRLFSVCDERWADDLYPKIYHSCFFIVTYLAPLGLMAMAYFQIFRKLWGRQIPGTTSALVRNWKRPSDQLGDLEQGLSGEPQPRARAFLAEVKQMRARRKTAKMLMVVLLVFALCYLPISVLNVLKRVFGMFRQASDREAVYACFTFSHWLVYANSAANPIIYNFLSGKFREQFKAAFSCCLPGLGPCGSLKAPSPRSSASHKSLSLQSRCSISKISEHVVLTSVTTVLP
Method: as §1, §2, §3, §4, §5

SMILES	Kb (human OX2 receptors)	Kb (human OX1 receptors)
N#Cc1ccc(-c2ncccn2)c(C(=O)N2[C@H](CNc3ccc(Cl)cn3)CC[C@H]3C[C@H]32)c1 [Compound 1i, 3-((1R,3S,6S)-3-(((5-chloropyridin-2-yl)amino)methyl)-2-azabicyclo[4.1.0]heptane-2-carbonyl)-4-(pyrimidin-2-yl)benzonitrile]	20 nM	1.58 nM
Cc1ccc(-c2ncccn2)c(C(=O)N2[C@H](CNc3nccc(C(F)(F)F)n3)CC[C@@H]3C[C@@H]32)c1 [Compound 4i, (5-methyl-2-(pyrimidin-2-yl)phenyl)((1S,3S,6R)-3-(((4-(trifluoromethyl)pyrimidin-2-yl)amino)methyl)-2-azabicyclo[4.1.0]heptan-2-yl)methanone]		25.1 nM
O=C(c1cc(Cl)ccc1-c1ncccn1)N1[C@H](CNc2ccc(C(F)(F)F)cn2)CC[C@@H]2C[C@@H]21 [Compound 4b, (5-chloro-2-(pyrimidin-2-yl)phenyl)((1S,3S,6R)-3-(((5-(trifluoromethyl)pyridin-2-yl)amino)methyl)-2-azabicyclo[4.1.0]heptan-2-yl)methanone]	200 nM	5.01 nM
N#Cc1ccc(-c2ncccn2)c(C(=O)N2[C@H](CNc3ccc(C(F)(F)F)cn3)CC[C@@H]3C[C@@H]32)c1 [Compound 4c, 4-(pyrimidin-2-yl)-3-((1S,3S,6R)-3-(((5-(trifluoromethyl)pyridin-2-yl)amino)methyl)-2-azabicyclo[4.1.0]heptane-2-carbonyl)benzonitrile]	79.4 nM	6.31 nM
O=C(c1cc(Cl)ccc1-c1ncccn1)N1[C@H](COc2ccc(F)cn2)CC[C@H]2C[C@H]21 [Compound 3c, (5-chloro-2-(pyrimidin-2-yl)phenyl)((1R,3S,6S)-3-(((5-fluoropyridin-2-yl)oxy)methyl)-2-azabicyclo[4.1.0]heptan-2-yl)methanone]	63.1 nM	12.6 nM
O=C(c1cc(Cl)ccc1-c1ncccn1)N1[C@H](CNc2cc(C(F)(F)F)ccn2)CC[C@@H]2C[C@@H]21 [Compound 4d, (5-chloro-2-(pyrimidin-2-yl)phenyl)((1S,3S,6R)-3-(((4-(trifluoromethyl)pyridin-2-yl)amino)methyl)-2-azabicyclo[4.1.0]heptan-2-yl)methanone]	50.1 nM	7.94 nM
O=C(c1cc(Cl)ccc1-c1ncccn1)N1[C@H](CNc2nccc(C(F)(F)F)n2)CC[C@@H]2C[C@@H]21 [Compound 4h, (5-chloro-2-(pyrimidin-2-yl)phenyl)((1S,3S,6R)-3-(((4-(trifluoromethyl)pyrimidin-2-yl)amino)methyl)-2-azabicyclo[4.1.0]heptan-2-yl)methanone]		31.6 nM
N#Cc1ccc(-c2ncccn2)c(C(=O)N2[C@H](CNc3nccc(C(F)(F)F)n3)CC[C@H]3C[C@H]32)c1 [Compound 1j, 4-(pyrimidin-2-yl)-3-((1R,3S,6S)-3-(((4-(trifluoromethyl)pyrimidin-2-yl)amino)methyl)-2-azabicyclo[4.1.0]heptane-2-carbonyl)benzonitrile]	20 nM	5.01 nM
O=C(c1cc(Cl)ccc1-c1ncccn1)N1[C@H](CNc2ccc(Cl)cn2)CC[C@@H]2C[C@@H]21 [Compound 4e, (5-chloro-2-(pyrimidin-2-yl)phenyl)((1S,3S,6R)-3-(((5-chloropyridin-2-yl)amino)methyl)-2-azabicyclo[4.1.0]heptan-2-yl)methanone]		3.98 nM
Cc1ccc(-c2ncccn2)c(C(=O)N2[C@H](CNc3ccc(Cl)cn3)CC[C@H]3C[C@H]32)c1 [Compound 1c]	12.6 nM	0.794 nM
Cc1ccc(-c2ncccn2)c(C(=O)N2[C@H](CNc3cc(C(F)(F)F)ccn3)CC[C@@H]3C[C@@H]32)c1 [Compound 4f, (5-methyl-2-(pyrimidin-2-yl)phenyl)((1S,3S,6R)-3-(((4-(trifluoromethyl)pyridin-2-yl)amino)methyl)-2-azabicyclo[4.1.0]heptan-2-yl)methanone]	39.8 nM	6.31 nM
N#Cc1ccc(-c2ncccn2)c(C(=O)N2[C@H](CNc3ccc(C(F)(F)F)cn3)CC[C@H]3C[C@H]32)c1 [Compound 1b, 4-(pyrimidin-2-yl)-3-((1R,3S,6S)-3-(((5-(trifluoromethyl)pyridin-2-yl)amino)methyl)-2-azabicyclo[4.1.0]heptane-2-carbonyl)benzonitrile]	10 nM	5.01 nM
Cc1ccc(-c2ncccn2)c(C(=O)N2[C@H](CNc3ccc(C(F)(F)F)cn3)CC[C@@H]3C[C@@H]32)c1 [Compound 4a, (5-methyl-2-(pyrimidin-2-yl)phenyl)((1S,3S,6R)-3-(((5-(trifluoromethyl)pyridin-2-yl)amino)methyl)-2-azabicyclo[4.1.0]heptan-2-yl)methanone]	39.8 nM	2.51 nM
Cc1ccc(-c2ncccn2)c(C(=O)N2[C@H](CNc3ccc(Cl)cn3)CC[C@@H]3C[C@@H]32)c1 [Compound 4g, ((1S,3S,6R)-3-(((5-chloropyridin-2-yl)amino)methyl)-2-azabicyclo[4.1.0]heptan-2-yl)(5-methyl-2-(pyrimidin-2-yl)phenyl)methanone]		1.58 nM
Cc1nc(C(=O)N2[C@H](CNc3ccc(C(F)(F)F)cn3)CC[C@H]3C[C@H]32)c(-c2ccccc2)s1 [Compound 2a, (2-methyl-5-phenylthiazol-4-yl)((1R,3S,6S)-3-(((5-(trifluoromethyl)pyridin-2-yl)amino)methyl)-2-azabicyclo[4.1.0]heptan-2-yl)methanone]	2.51 nM	2.51 nM
N#Cc1ccc(-c2ncccn2)c(C(=O)N2[C@H](COc3ccc(Cl)cn3)CC[C@H]3C[C@H]32)c1 [Compound 3a, 3-((1R,3S,6S)-3-(((5-chloropyridin-2-yl)oxy)methyl)-2-azabicyclo[4.1.0]heptane-2-carbonyl)-4-(pyrimidin-2-yl)benzonitrile]	63.1 nM	1.26 nM
Cc1ccc(-c2ncccn2)c(C(=O)N2[C@H](COc3ccc(C(F)(F)F)cn3)CC[C@H]3C[C@H]32)c1 [Compound 3g, (5-methyl-2-(pyrimidin-2-yl)phenyl)((1R,3S,6S)-3-(((5-(trifluoromethyl)pyridin-2-yl)oxy)methyl)-2-azabicyclo[4.1.0]heptan-2-yl)methanone]	12.6 nM	1.58 nM
Cc1nc(C(=O)N2[C@H](CNc3ccc(C(F)(F)F)cn3)CC[C@@H]3C[C@@H]32)c(-c2ccccc2)s1 [Compound 5a, (2-methyl-5-phenylthiazol-4-yl)((1S,3S,6R)-3-(((5-(trifluoromethyl)pyridin-2-yl)amino)methyl)-2-azabicyclo[4.1.0]heptan-2-yl)methanone]	50.1 nM	2.51 nM
O=C(c1cc(Cl)ccc1-c1ncccn1)N1[C@H](CNc2nccc(C(F)(F)F)n2)CC[C@H]2C[C@H]21 [Compound 1g, (5-chloro-2-(pyrimidin-2-yl)phenyl)((1R,3S,6S)-3-(((4-(trifluoromethyl)pyrimidin-2-yl)amino)methyl)-2-azabicyclo[4.1.0]heptan-2-yl)methanone]	5.01 nM	1 nM
N#Cc1ccc(-c2ncccn2)c(C(=O)N2[C@H](COc3ccc(F)cn3)CC[C@H]3C[C@H]32)c1 [Compound 3b, 3-((1R,3S,6S)-3-(((5-fluoropyridin-2-yl)oxy)methyl)-2-azabicyclo[4.1.0]heptane-2-carbonyl)-4-(pyrimidin-2-yl)benzonitrile]		79.4 nM
